# In EP0894794A1, “Optical isomers of cloperastine” (AESCULAPIUS FARMACEUTICI S.r.l., priority 1997, dated 1999):
# Marks after values point to notes of the source that are not given here.
# Tests used:
# [1] = tested on: mouse; test: test of potentiation of pentylenetetrazole (interaction with central stimulants); settings: fendizoate, dose 150 mg/kg; for % variation: mean score vs. vehicle controls; for Mean score: scores 0 to 4 after intraperitoneal 50 mg/kg PTZ, mouse, 20 animals
# [2] = tested on: mouse; test: narcosis from hexobarbital (interaction with central depressants); settings: fendizoate; for Duration of sleep: mean ± SD after intraperitoneal 80 mg/kg sodium hexobarbital, mouse; for % variation: sleeping time vs. vehicle controls
# [3] = tested on: guinea pigs; test: citric acid aerosol coughing test; settings: for ED50 / inhibition at 1 mg/kg / inhibition at 5 mg/kg / inhibition at 10 mg/kg: Cavia porcellus, inhaled or nasal; for inhibition at 1 mg/kg / inhibition at 5 mg/kg / inhibition at 10 mg/kg: read-out: inhib. %; for coughs in 3 min mean + SD: fendizoate, guinea pigs, 8 animals
# [4] = tested on: rat; test: acute toxicity (LD50), rat; settings: HCl, female rat
# [5] = tested on: mouse; test: acute toxicity (LD50), mouse; settings: HCl, female mouse
# [6] = acute toxicity (LD50), rat; settings: rat, in vivo, ip, LD50 and 95% conf. lim., HCl; female rat; intraperit.
# [7] = acute toxicity (LD50), mouse; settings: mouse, in vivo, LD50 and 95% conf. lim., HCl, female mouse
SMILES,Mean score [1],Duration of sleep ([2]; dose 5 mg/kg),Duration of sleep ([2]; dose 15 mg/kg),Duration of sleep ([2]; dose 50 mg/kg),Duration of sleep ([2]; dose 150 mg/kg),ED50 [3],inhibition at 1 mg/kg [3],inhibition at 5 mg/kg [3],inhibition at 10 mg/kg [3],coughs in 3 min mean + SD ([3]; dose 1 mg/kg),coughs in 3 min mean + SD ([3]; dose 5 mg/kg),coughs in 3 min mean + SD ([3]; dose 10 mg/kg),% variation ([1]; 150 mg/kg),"% variation ([2]; dose 5 mg/kg, 5 mg/kg)","% variation ([2]; dose 15 mg/kg, 15 mg/kg)","% variation ([2]; dose 50 mg/kg, 50 mg/kg)","% variation ([2]; dose 150 mg/kg, 150 mg/kg)",LD50 and 95% conf. lim. ([4]; oral),other results
"Clc1ccc(C(OCCN2CCCCC2)c2ccccc2)cc1 (racemic) [DL-CLO, DL-cloperastine]",2.45**(°°),53.80 ± 9.05 min,45.50 ± 6.39 min,25.80 ± 7.30 min,10.40 ± 4.18 min,7.22 mg/kg,13.5%,41.9%,57.2%,57.7 ± 8.21,38.4 ± 5.33,28.3 ± 4.50,,,,,,,% variation [1]: 122.7%; % variation ([2]; dose 5 mg/kg): +61.1**(°°) %; % variation ([2]; dose 15 mg/kg): +36.2**(°) %; % variation ([2]; dose 50 mg/kg): -22.8(°°) %; % variation ([2]; dose 150 mg/kg): -68.9** %
"Clc1ccc(C(OCCN2CCCCC2)c2ccccc2)cc1 (single isomer, unassigned) [D-CLO, D(+) cloperastine]",3.15**(°°),71.70 ± 10.92 min,45.80 ± 8.67 min,22.40 ± 6.37 min,8.90 ± 3.01 min,,,,,,,,186.4%,+114.7**(°°) %,+37.1*(°) %,-32.9*(°°) %,-73.4**(°°) %,602 (474-764) mg/kg,LD50 and 95% conf. lim. ([4]; intraperit.): 106 (82-138) mg/kg; LD50 and 95% conf. lim. ([5]; intraperit.): 96 (74.4-123.8) mg/kg; LD50 and 95% conf. lim. ([5]; oral): 269 (219-331) mg/kg
"Clc1ccc(C(OCCN2CCCCC2)c2ccccc2)cc1 (single isomer, unassigned) [L-CLO, L(-) cloperastine]",1.50,38.90 ± 7.89 min,67.60 ± 16.75 min,43.10 ± 9.07 min,18.70 ± 2.87 min,4.23 mg/kg,32.7%,45.4%,66.3%,44.5 ± 8.65,36.1 ± 5.24,22.3 ± 5.20,36.4%,+16.5%,+102.3** %,+29.0(°) %,-44.1** %,1226 (981-1532) mg/kg,"LD50 [6]: 195 mg/kg; LD50 ([7]; ip, intraperit.): 171 mg/kg; LD50 ([7]; po): 512 mg/kg"
